Source: patent US7176281B2 (priority 2003, dated 2007)
Where a SMILES comes first, the peptide text is derived from it.

Columns and labels:
[1] = tested on: mammalian (human and rat) type IIA sPLA2; format: binding
sPLA2 = test: Inhibition of sPLA2 activity at fixed concentrations; format: biochemical
[2] = biological target: T1, Group IIA purified human synovial sPLA2 (Homo sapiens, UniProt P14555); test: In vitro inhibition of purified human synovial sPLA2, 3H-labelled E. coli membranes; format: biochemical; conditions: fixed peptide concentration 5 μM
T1 construct: purchased Cayman, USA
T1 sequence (P14555 21-144): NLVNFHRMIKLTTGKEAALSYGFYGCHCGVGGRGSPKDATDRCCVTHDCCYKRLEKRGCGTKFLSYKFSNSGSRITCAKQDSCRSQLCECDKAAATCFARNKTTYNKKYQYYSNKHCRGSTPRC

[3] = tested on: Tg197 transgenic mice (chronic inflammatory polyarthritis); test: Tg197 transgenic mouse arthritis model, experiment 2 (4 weeks, time course); format: in vivo
Procedure: In experiment 2, mice were divided into 6 groups (A–F), and were injected i.p with 3 weekly doses (150 μg peptide in 50 μL DMSO per dose) of either the test peptide P-NT.II or the control peptide with the scrambled sequence for 4 consecutive weeks. Tg197 mice in Group B (n=18) were further divided into 4 sub-groups (B1, B2, B3, B4). At the end of 1st week, four Tg197 mice from Group B (sub-group B1) were sacrificed and both hind legs taken for histological processing and scorings. The remaining Tg197 mice from the other sub-groups B were continued with 3 regular doses of injections per week, and four Tg197 mice from each sub-group B2 and B3, were sacrificed at the end of 2nd and 3rd weeks, respectively. At the end of 4th week, all remaining Tg197 mice ([…]) were sacrificed for collection of joint specimens.
Disease monitoring was done by gross observations based on body weight measurements and arthritis scoring, which were done twice weekly after treatment until all the animals were sacrificed at 5th week in experiment 1, or at 4th week in experiment 2. Arthritis score (AS) was recorded on both ankle joints, and average scores as shown below were taken: • 0=no arthritis (normal appearance and flexion); • 0.5=onset of arthritis (mild joint swelling); • 1.0=mild arthritis (joint distortion); • 1.5=as above+finger deformation, less strength on flexion; • […]=moderate arthritis (severe swelling, joint deformation, no strength on flexion); • 2.5=as above+finger deformation in paws; • 3.0=heavy arthritis (ankylosis detected on flexion and severely impaired movement).
For histopathological scoring, both hind legs were dissected and fixed in 10% formaldehyde overnight, decalcified in citrate-buffered formic acid for 3 days at 4° C., and processed for light microscopy (LM). • Histopathological score (HS) was evaluated as follows: • 0=no detectable pathology, • 1=hyperplasia of the synovial membrane and presence of polymorphonuclear infiltrates • 2=pannus and fibrous tissue formation and focal subchondrial bone erosion • 3=articular cartilage destruction and bone erosion • 4=articular cartilage destruction and extensive bone erosion.
Transmission electron microscopy (TEM): Ankle joints dissected from the left hind leg of each mouse were split open longitudinally through the midline between the tibia and the talus, prefixed overnight with 2.5% glutaraldehyde in phosphate buffer, pH 7.4 (PB) and rinsed with PB. After fixing with 1% osmium tetroxide in PB for 2 h, they were dehydrated in a graded series of ethanol and processed into Araldite. Semi-thin sections (1.0μ) were cut and stained with methylene blue to observe the orientation and for histopathological scorings under the light microscope. Ultra-thin sections (80–90 nm) were then cut with an ultramicrotome (Riechert-Jung Ultracut E), mounted on copper grids, counterstained with uranyl acetate and lead citrate, and evaluated under electron microscope (CM120 Biotwin, FEI Company).
Anti-inflammatory activity of the candidate peptide P-NT.II was examined as a new treatment option for modulating rheumatoid arthritis (RA) in a transgenic animal model. To evaluate the potential effectiveness of the peptide as prophylaxis against RA, two separate experiments were performed in 4 week-old transgenic (Tg197) mice and non-transgenic wild-type (wt) mice. These transgenic mice (Tg197) express human tumor necrosis factor (TNFα), a cytokine which has been implicated in the pathogenesis of human RA.

[4] = tested on: organotypic hippocampal slice cultures; test: Kainate-induced injury in organotypic hippocampal slice cultures, GluR1 immunoreactivity
[5] = tested on: murine macrophage cell line J774; test: LPS- or TNF-induced PGE2 production in J774 macrophages; format: cell-based, mouse; conditions: J774 cells, 20 h
Procedure: The murine macrophage cell line J774 (ATCC, USA) was cultured at 37° C. in humidified 5% CO2/95% air in Dulbecco's Modified Eagle's Medium (DMEM) containing 10% foetal bovine serum, 2 mM glutamine, 20 mM Hepes, 100 Ul/ml penicillin and 100 μg/ml streptomycin. After growing to confluence, the cells were dislodged by scrapping, plated in 12 culture wells at a density of 5×10^5 cells/ml per well, and allowed to adhere for 2 h. […] Culture medium supernatants were collected after centrifugation (10,000 g, 4° C., 15 min) and stored at −80° C. prior to measurement of PGE2, which was done according to the manufacturer's instructions (EIA kit-monoclonal, Cayman Chemical, USA).
FIGS. 13A and 13B show modulation of LPS- and TNF-stimulated PGE2 release. […] Supernatants were collected, and PGE2 release in the medium was determined by ELISA. Results are shown as the mean±SEM of 5 experiments performed in duplicate. **P<0.01 between inhibitor-treated and untreated cultures.

## CC[C@H](C)[C@H](NC(=O)[C@H](Cc1ccc(O)cc1)NC(=O)[C@@H](NC(=O)CNC(=O)[C@H](CC(=O)O)NC(=O)[C@H](Cc1c[nH]c2ccccc12)NC(=O)[C@@H](NC(=O)[C@H](Cc1c[nH]cn1)NC(=O)[C@@H](NC(=O)[C@H](CC(=O)O)NC(=O)[C@@H](NC(=O)[C@H](CCCNC(=N)N)NC(=O)CNC(=O)[C@@H](N)CC(C)C)C(C)C)[C@@H](C)CC)C(C)C)C(C)C)C(=O)N[C@@H](CCCNC(=N)N)C(=O)NCC(=O)N[C@@H](CCCNC(=N)N)C(=O)O [P-NT.II] (H-LGRVDIHVWDGVYIRGR-OH; N-terminus and C-terminus assumed)
[1]
  competition with labeled P-NT.II for binding to type IIA sPLA2: inhibited
sPLA2; 6 μM
  inhibition of sPLA2 activity: 80%
sPLA2; 10 μM
  inhibition of sPLA2 activity: 90%
[2]
  inhibition at 5 µM: 55.6%
[3]; 1 wk treatment
  % of total at indicated HS scores, HS 2: 100%
  % of total at indicated HS scores, HS 3: 0%
  % of total at indicated HS scores, HS 4: 0%
  Mean HS ± SEM: 2.12 ± 0.12
[3]; 1–4 weeks
  HS compared to untreated or scrambled peptide treated group: significantly reduced HS
[3]; 1–4 weeks post-treatment
  ultrastructural features of the articular chondrocytes (TEM): did not significantly differ from those seen in the joints of normal wildtype mice
[3]; 2 wk treatment
  % of total at indicated HS scores, HS 2: 100%
  % of total at indicated HS scores, HS 3: 0%
  % of total at indicated HS scores, HS 4: 0%
  Mean HS ± SEM: 2.37 ± 0.12
[3]; 3 wk treatment
  % of total at indicated HS scores, HS 2: 75%
  % of total at indicated HS scores, HS 3: 25%
  % of total at indicated HS scores, HS 4: 0%
  Mean HS ± SEM: 2.50 ± 0.20
[3]; 4 weeks post-treatment, n=4/group
  HS of synovitis, cartilage degradation and bone erosion: protective effect
[3]; 4 wk treatment
  % of total at indicated HS scores, HS 2: 75%
  % of total at indicated HS scores, HS 3: 25%
  % of total at indicated HS scores, HS 4: 0%
  Mean HS ± SEM: 2.62 ± 0.31
[3]; as early as 1 week after initiation of treatment
  number of inflammatory cells in the synovium: reduced
[3]; first two weeks after peptide treatment
  joints either normal or only mildly affected by arthritis: 100%
[3]; histopathologic analysis of joints
  chondrocyte necrobiosis as well as bone erosions: significantly reduced
[3]; last two weeks after peptide treatment
  joints either normal or only mildly affected by arthritis: 75%
[4]; 10 μM added before kainate
  GluR1 immunoreactivity of pyramidal neurons after kainate: significantly prevented the decrease in GluR1 immunoreactivity
[4]; 6–10 μM
  protection against kainite lesioned hippocampal slices: almost complete protection
[5]
  LPS- or TNF-induced PGE2 production: dose-dependently inhibit
